Laboratory results from patent US8822486B2, “Spiropiperidine compounds” (Eli Lilly and Company, priority 2009, dated 2014).

Columns and labels:
[1] = tested on: Male Balb/c mice; assay: Intraperitoneal Glucose Tolerance Test (IPGTT); assay type: in vivo, mouse; conditions: oral
Method: To examine the ability of exemplified compounds to activate GPR40 in-vivo resulting in anti-diabetic efficacy, i.e. an increase in insulin and reduction in glucose levels, a 4-day intraperitoneal glucose tolerance test (ipGTT) study is completed with each compound tested in the IPGTT.
Male Balb/c (Albino mice) mice (8-9 weeks of age) are single housed and fed with normal rodent chow diet and water ad libitum. Animals are weighed and randomized by body weight and daily body weights are recorded. Upon study initiation, animals are dosed once per day orally for three days using a formulation carrying methylcellulose and tween-80. On the night before the 4-day IPGTT study, animals are fasted overnight in clean cages. On the morning of the IPGTT (Day 4), animals are dosed orally with compound or vehicle alone 60 minutes prior to the IPGTT (glucose 2 g/kg, i.p.). Blood glucose levels are determined from tail bleeds taken at 0, 3, 7, 15, 30, and 60 min after glucose challenge. Plasma is isolated and used to estimate respective insulin levels. The blood glucose excursion profile from t=0 to t=60 min is used to integrate an area under the curve (AUC) for each treatment. Percent lowering in glucose is calculated from the AUC data of the compounds with respect to the AUC of vehicle group. The test compound is orally administered at 0.1, 0.3, 1.0, 3.0, or 10 mg/kg, and a positive control is administered at 10 mg/kg.

[2] = target: T1, PPARγ (Homo sapiens, UniProt P37231); assay: PPARγ reporter functional assay in CV1 cells; assay type: cell-based; conditions: examined up to 10 μM, luciferase reporter, 24 hours
T1 sequence (P37231 1-505): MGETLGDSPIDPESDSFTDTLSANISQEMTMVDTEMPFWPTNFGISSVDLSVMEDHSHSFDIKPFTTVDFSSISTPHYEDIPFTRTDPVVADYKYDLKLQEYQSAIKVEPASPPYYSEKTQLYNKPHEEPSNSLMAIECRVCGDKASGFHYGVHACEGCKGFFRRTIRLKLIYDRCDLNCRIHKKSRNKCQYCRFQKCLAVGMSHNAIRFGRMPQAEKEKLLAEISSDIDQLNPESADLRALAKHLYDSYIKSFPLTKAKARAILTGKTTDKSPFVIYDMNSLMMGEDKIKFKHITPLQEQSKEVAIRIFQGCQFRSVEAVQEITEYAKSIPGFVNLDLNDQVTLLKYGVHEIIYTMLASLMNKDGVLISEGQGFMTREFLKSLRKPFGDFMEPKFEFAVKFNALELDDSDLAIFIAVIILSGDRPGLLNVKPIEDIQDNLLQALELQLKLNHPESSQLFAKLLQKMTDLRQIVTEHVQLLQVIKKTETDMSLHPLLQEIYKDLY
T1 sequence (P19793 1-462 partner): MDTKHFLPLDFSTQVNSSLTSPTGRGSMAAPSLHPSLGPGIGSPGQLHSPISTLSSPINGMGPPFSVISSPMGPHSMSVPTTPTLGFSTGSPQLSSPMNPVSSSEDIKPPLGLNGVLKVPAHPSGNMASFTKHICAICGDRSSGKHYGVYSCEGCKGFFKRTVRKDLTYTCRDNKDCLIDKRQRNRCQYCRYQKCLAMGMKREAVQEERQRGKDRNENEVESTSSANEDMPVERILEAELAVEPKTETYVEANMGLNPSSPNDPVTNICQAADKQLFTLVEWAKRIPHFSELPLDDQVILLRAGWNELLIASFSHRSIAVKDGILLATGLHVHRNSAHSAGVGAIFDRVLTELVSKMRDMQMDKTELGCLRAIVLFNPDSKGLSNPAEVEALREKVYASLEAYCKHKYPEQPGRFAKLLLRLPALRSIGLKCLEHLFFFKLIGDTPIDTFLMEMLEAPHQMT
Excerpt: (§1) Gal4 PPARα, Gal4 PPARδ, and PPARγ reporter functional assays are also used to monitor the selectivity of exemplified compounds. CV1 cells, which are derived from the renal tissue of an African green monkey, are transfected with various receptor and reporter plasmids using Fugene. For the Gal4 PPARα and PPARδ assays, a reporter plasmid containing five tandem copies of the yeast transcription protein Gal4 response element, cloned upstream of a firefly luciferase gene driven by the major late promoter of adenovirus, is transfected together with a Simian Virus 40 (SV40) driven plasmid constitutively expressing a hybrid protein containing the Gal4 DNA binding domain (DBD), and either the PPARα or PPARδ ligand binding. For the PPARγ assay, plasmids encoding PPARγ and RXRα, both driven by a cytomegalovirus (CMV) promoter are transfected together with a plasmid containing luciferase reporter cDNA driven by the TK promoter and a receptor response element (2×PPRE). Cells are transfected in T225 cm^2 cell culture flasks in DMEM media with 5% charcoal-stripped FBS. […] After 24 hours incubation with compounds, cells are lysed and luciferase activity is determined as a measure of receptor activation by luminescence. […] The maximum percent stimulation is determined versus maximum stimulation obtained with 10 μM of an appropriate PPAR agonist reference compound. […]

[3] = target: T2, Gal4 PPARδ (Homo sapiens, UniProt Q03181); assay: Gal4 PPARδ reporter functional assay in CV1 cells; assay type: cell-based; conditions: examined up to 10 μM, luciferase reporter, 24 hours
T2 construct: expressed in transfected cells; host or cells: CV1 (African green monkey kidney)
T2 sequence (Q03181 211-439 limits assumed): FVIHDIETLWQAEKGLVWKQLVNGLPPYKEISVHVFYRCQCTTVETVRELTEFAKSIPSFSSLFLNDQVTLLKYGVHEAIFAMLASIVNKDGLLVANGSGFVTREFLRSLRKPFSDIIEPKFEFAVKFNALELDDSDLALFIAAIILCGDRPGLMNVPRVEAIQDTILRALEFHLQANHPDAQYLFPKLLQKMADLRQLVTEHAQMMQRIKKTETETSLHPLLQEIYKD
Excerpt: as §1

[4] = Example 1 at 0.1, 0.3, 1.0 and 3.0 mg/kg, positive control 10 mg/kg

CC#C[C@@H](CC(=O)O)c1ccc(OCc2ccc(CN3CCC4(C=Cc5ccccc54)CC3)s2)cc1 [Example 1, (3S)-3-[4-[[5-(Spiro[indene-1,4′-piperidine]-1′-ylmethyl)-2-thienyl]methoxy]phenyl]hex-4-ynoic acid]
ED50 ([1]; Mus musculus, once per day, 4-day study, glucose 2 g/kg i.p., AUC t=0 to 60 min, read-out: ED50 based on AUCs for glucose lowering): 0.21 mg/kg
glucose levels at the 3 minute time point ([1]; Example 1 0.1, 0.3, 1.0, 3.0 or 10 mg/kg, positive control 10 mg/kg): No concentration of the compound of Example 1 or the positive control significantly lowered glucose levels
glucose levels at the 15 minute time point ([1]; Example 1 at 0.1, 0.3, 1.0 and 3.0 mg/kg): significantly lowered
glucose levels at the 30 minute time point [1, 4]: significantly lowered
glucose levels at the 60 minute time point [1, 4]: significantly lowered
glucose levels at the 7 minute time point ([1]; Example 1 at 0.3, 1.0, 3.0 and 10 mg/kg, positive control 10 mg/kg): significantly lowered
insulin levels ([1]; at the 3.0 and 10.0 mg/kg dose): significantly elevated
functional activation of PPARγ [2]: No functional activation
functional activation of PPARδ [3]: No functional activation
